Here are results for two compounds from ChEMBL document CHEMBL4431367, “Role of a gitogenin-type steroidal saponin (3-O-β-d-glucopyranosyl (1→2)-β-d-glucopyranosyl (1→4)-β-d-galactopyranoside-25R,5α-spirostane-2α,3β-diol), isolated from the leaves of Malvastrum coromandelianum in regulating thyrotoxicosis in rats” (2016).

Test [1] is filed under the species Rattus norvegicus. Description: animal or person. To be noted: Wistar, po, read-out: INH.
Description: Antithyroid activity in L-T4-induced Wistar albino rat model of hyperthyroidism assessed as inhibition of hepatic 5'-monodeiodinase 1 activity by measuring reduction in T3 level using T4 as substrate at 10 mg/kg, po qd post 12 days of L-T4 challenge measured after 15 days in presence of [125I]-T3 by RIA
Test [2] is filed under the species Rattus norvegicus. Description: animal or person. Particulars: Wistar, po, read-out: INH. This is another data set of the same source.
Description: Antithyroid activity in L-T4-induced Wistar albino rat model of hyperthyroidism assessed as reduction in T4 level at 10 mg/kg, po qd post 12 days of L-T4 challenge measured after 15 days in presence of [125I]-T4 by RIA
The species entered for test [3] is Rattus norvegicus. Description: animal or person. Particulars: Wistar, po, read-out: INH. This is another data set of the same source.
Description: Antithyroid activity in L-T4-induced Wistar albino rat model of hyperthyroidism assessed as reduction in T3 level at 10 mg/kg, po qd post 12 days of L-T4 challenge measured after 15 days in presence of [125I]-T3 by RIA
Test [4] relates to Rattus norvegicus. Description: Antithyroid activity in L-T4-induced Wistar albino rat model of hyperthyroidism assessed as decrease in body weight loss at 20 mg/kg, po qd post 12 days of L-T4 challenge measured after 15 days. It counts as functional, organism-based.
For test [5], the system named is Rattus norvegicus. Description: Antithyroid activity in L-T4-induced Wistar albino rat model of hyperthyroidism assessed as reduction in glucose-6-phosphatase activity at 20 mg/kg, po qd post 12 days of L-T4 challenge measured after 15 days. It counts as functional, organism-based.
Test [6] relates to Rattus norvegicus. Description: Antithyroid activity in L-T4-induced Wistar albino rat model of hyperthyroidism assessed as reduction in T4 level at 20 mg/kg, po qd post 12 days of L-T4 challenge measured after 15 days in presence of [125I]-T4 by RIA. It counts as functional.
The test system of test [7] is Rattus norvegicus. Description: Antioxidant activity in L-T4-induced Wistar albino rat model of hyperthyroidism assessed as lipid peroxidation level by measuring MDA formation per mg protein at 30 mg/kg, po qd post 12 days of L-T4 challenge measured after 15 days by TBARS assay (reference value: 1.34 +/- 0.19 nM/hr). It counts as functional.
In test [8] the test system is Rattus norvegicus. Description: Antioxidant activity in L-T4-induced Wistar albino rat model of hyperthyroidism assessed as lipid peroxidation level by measuring MDA formation per mg protein at 20 mg/kg, po qd post 12 days of L-T4 challenge measured after 15 days by TBARS assay (reference value: 1.34 +/- 0.19 nM/hr). It counts as functional.
In test [9] the test system is Rattus norvegicus. Description: Antithyroid activity in L-T4-induced Wistar albino rat model of hyperthyroidism assessed as serum T3 level at 20 mg/kg, po qd post 12 days of L-T4 challenge measured after 15 days in presence of [125I]-T3 by RIA (reference value: 2.31 +/- 0.53 ng/ml). It counts as functional.
Test [10] deals with Rattus norvegicus. Description: Antithyroid activity in L-T4-induced Wistar albino rat model of hyperthyroidism assessed as serum T4 level at 30 mg/kg, po qd post 12 days of L-T4 challenge measured after 15 days in presence of [125I]-T4 by RIA (reference value: 92.14 +/- 3.45 ng/ml). In kind it is functional.
Test [11] has as its system Rattus norvegicus. Description: Antithyroid activity in L-T4-induced Wistar albino rat model of hyperthyroidism assessed as serum T4 level at 10 mg/kg, po qd post 12 days of L-T4 challenge measured after 15 days in presence of [125I]-T4 by RIA (reference value: 92.14 +/- 3.45 ng/ml). In kind it is functional.
The subject of test [12] is Rattus norvegicus. Description: Antithyroid activity in L-T4-induced Wistar albino rat model of hyperthyroidism assessed as serum T4 level at 20 mg/kg, po qd post 12 days of L-T4 challenge measured after 15 days in presence of [125I]-T4 by RIA (reference value: 92.14 +/- 3.45 ng/ml). It counts as functional.
In test [13] the test system is Rattus norvegicus. Description: Antithyroid activity in L-T4-induced Wistar albino rat model of hyperthyroidism assessed as inhibition of hepatic 5'-monodeiodinase 1 activity by measuring reduction in T3 level using T4 as substrate at 20 mg/kg, po qd post 12 days of L-T4 challenge measured after 15 days in presence of [125I]-T3 by RIA. It counts as functional.
In test [14] the test system is Rattus norvegicus. Description: Antithyroid activity in L-T4-induced Wistar albino rat model of hyperthyroidism assessed as serum T3 level at 30 mg/kg, po qd post 12 days of L-T4 challenge measured after 15 days in presence of [125I]-T3 by RIA (reference value: 2.31 +/- 0.53 ng/ml). In kind it is functional.
Test [15] relates to Rattus norvegicus. Description: Antioxidant activity in L-T4-induced Wistar albino rat model of hyperthyroidism assessed as increase in catalase activity by measuring H2O2 utilization per mg protein at 20 mg/kg, po qd administered post 12 days of L-T4 challenge measured every 5 secs for 30 secs on day 28 by spectrophotometric method. In kind it is functional, organism-based.

For test [16], the system named is Rattus norvegicus. Description: Antioxidant activity in L-T4-induced Wistar albino rat model of hyperthyroidism assessed as lipid peroxidation level by measuring MDA formation per mg protein at 10 mg/kg, po qd post 12 days of L-T4 challenge measured after 15 days by TBARS assay (reference value: 1.34 +/- 0.19 nM/hr). It counts as functional.
In test [17] the test system is Rattus norvegicus. Description: Antithyroid activity in L-T4-induced Wistar albino rat model of hyperthyroidism assessed as reduction in T3 level at 20 mg/kg, po qd post 12 days of L-T4 challenge measured after 15 days in presence of [125I]-T3 by RIA. It counts as functional.
For test [18], the system named is Rattus norvegicus. Description: Antithyroid activity in L-T4-induced Wistar albino rat model of hyperthyroidism assessed as inhibition of hepatic 5'-monodeiodinase 1 activity using T4 as substrate at 20 mg/kg, po qd post 12 days of L-T4 challenge measured after 15 days in presence of [125I]-T3 by RIA. It counts as functional, organism-based.
Test [19] has as its system Rattus norvegicus. Description: Antioxidant activity in L-T4-induced Wistar albino rat model of hyperthyroidism assessed as reduction in total GSH content per mg of protein at 20 mg/kg, po qd administered post 12 days of L-T4 challenge measured after 15 days by Ellman's method. It counts as functional, organism-based. (In general: DTNB colorimetry detects thiols as they appear.)

In test [20] the test system is Rattus norvegicus. Description: Antithyroid activity in L-T4-induced Wistar albino rat model of hyperthyroidism assessed as serum T3 level at 10 mg/kg, po qd post 12 days of L-T4 challenge measured after 15 days in presence of [125I]-T3 by RIA (reference value: 2.31 +/- 0.53 ng/ml). In kind it is functional.
Test [21] concerns Rattus norvegicus. Description: Antioxidant activity in L-T4-induced Wistar albino rat model of hyperthyroidism assessed as increase in superoxide dismutase activity by measuring pyrogallol oxidization per mg protein at 20 mg/kg, po qd administered post 12 days of L-T4 challenge measured on day 28. In kind it is functional, organism-based.

Active and inactive are the calls of the source. No cut-off for these calls is given here.

With `CCCc1cc(=O)[nH]c(=S)[nH]1` [PROPYLTHIOURACIL], the values for the inhibition in vivo at 10 mg/kg in the test filed under Rattus norvegicus [1], in the test listed under Rattus norvegicus [2] and in the test filed under Rattus norvegicus [3] were 59%, 81% and 56.5%, respectively.

Turning to `C[C@@H]1CC[C@@]2(OC1)O[C@H]1C[C@H]3[C@@H]4CC[C@H]5C[C@@H](O[C@@H]6O[C@H](CO)[C@H](O)[C@H](O[C@@H]7O[C@H](CO)[C@@H](O)[C@H](O)[C@H]7O[C@@H]7O[C@H](CO)[C@@H](O)[C@H](O)[C@H]7O)[C@H]6O)[C@H](O)C[C@]5(C)[C@H]4CC[C@]3(C)[C@H]1[C@@H]2C`, the outcome with Rattus norvegicus [4], with Rattus norvegicus [5], with Rattus norvegicus [15], in the test with Rattus norvegicus [19] and in the test on Rattus norvegicus [21] was Active. The inhibition in vivo at 20 mg/kg turned out to be 88.8% with Rattus norvegicus [6], 75.1% with Rattus norvegicus [13] and 56% in the test with Rattus norvegicus [17]. Also, the Activity with Rattus norvegicus [7] is 0.976 nM/h; in the test on Rattus norvegicus [8], 0.312 nM/h; in the test with Rattus norvegicus [9], 0.31 ng/mL; with Rattus norvegicus [10], 49.85 ng/mL; with Rattus norvegicus [11], 79.81 ng/mL; with Rattus norvegicus [12], 38.7 ng/mL. The Activity with Rattus norvegicus [14] turned out to be 0.99 ng/mL; in the test with Rattus norvegicus [16] it was 0.871 nM/h; in the test on Rattus norvegicus [20] it was 1.91 ng/mL. In the test with Rattus norvegicus [18], the inhibition result was “Active”.
